From paper PMC6316234, “Bromopyrrole Alkaloids from the Sponge Agelas kosrae” (Marine Drugs, 2018)
Like-named read-outs stand apart in the source and are kept apart here.

Columns and labels:
[1] = tested on: MDA-MB-231; assay: Anti-proliferative activity, SRB staining assay, MDA-MB-231; format: cell-based; conditions: Homo sapiens, 72 h, read-out: IC50 Anti-Proliferation MDA-MB-231
Description: (§1) Anti-proliferative activity was evaluated using SRB staining assay in various cancer cell lines (K562, A549, HCT116, MDA-MB-231, SNU638, SK-Hep-1). Cells were purchased from the American Type Culture Collection (ATCC, Rockville, MD, USA). They were cultured in media supplemented with 10% fetal bovine serum (FBS) and antibiotics–antimycotics (PSF; 100 units/mL penicillin G sodium, […], and 250 ng/mL amphotericin B). All cells were maintained at 37 °C under a humidified atmosphere containing 5% CO2. Briefly, cells were seeded in 96-well plates with various doses of compounds and incubated for 72 h. The cells were stained as previously described. First, cells were fixed with 10% trichloroacetic acid and stained with 0.4% SRB in a 1% acetic acid solution. After washing and drying, dyes were dissolved in 10 mM Tris buffer (pH 10.0) and absorbance was measured at 515 nm. The percentage of cell proliferation was determined according to the following formula: cell proliferation (%) = 100 × ((A treated − A zero day)/(A control − A zero day)), where A is the average absorbance. The IC50 values were calculated through non-linear regression analysis using TableCurve 2D v5.01 (Systat Software Inc., San Jose, CA, USA).

[2] = tested on: A549; assay: Anti-proliferative activity, SRB staining assay, A549; format: cell-based; conditions: Homo sapiens, 72 h, read-out: IC50 Anti-Proliferation A549
Description: as §1

[3] = tested on: K562; assay: Anti-proliferative activity, SRB staining assay, K562; format: cell-based; conditions: Homo sapiens, 72 h
Description: as §1

[4] = tested on: SK-Hep-1; assay: Anti-proliferative activity, SRB staining assay, SK-Hep-1; format: cell-based; conditions: Homo sapiens, SK-HEP1, 72 h, read-out: IC50 Anti-Proliferation SK-Hep-1
Description: as §1

[5] = target: Candida albicans-derived isocitrate lyase (ICL) (Candida albicans, UniProt Q9P8Q7); assay: biochemical; format: biochemical
Description: A 1 mL aliquot of the reaction mixture contained 20 mM sodium phosphate buffer (pH 7.0), 1.27 mM threo-DL-(+)-isocitrate, 3.75 mM MgCl2, 4.1 mM phenylhydrazine, and 2.5 μg/mL of recombinant ICL. The reaction was immediately initiated following the addition of a substrate with or without a prescribed concentration of the inhibitor dissolved in DMSO (final concentration, 1%). Glyoxylate phenylhydrazone formation was spectrophotometrically assessed at 324 nm after incubation at 37 °C for 30 min. The percent inhibition of ICL enzyme activity for each compound was calculated relative to the inhibitor-free control and the IC50 values were calculated using nonlinear regression analysis (percent inhibition versus concentration). 3-Nitropropionic acid was used as a positive control. Protein concentrations were measured using the Bradford method with the Bio-Rad protein assay kit (Bio-Rad) and bovine serum albumin as the standard.

[6] = tested on: HCT116; assay: Anti-proliferative activity, SRB staining assay, HCT116; format: cell-based; conditions: Homo sapiens, HCT-116, 72 h, read-out: IC50 Anti-Proliferation HCT 116
Description: as §1

[7] = tested on: human umbilical vein endothelial cells (HUVEC); assay: Anti-angiogenic activity, VEGF-induced tube formation assay; format: cell-based; conditions: for IC50: Homo sapiens, HUVEC, VEGF 50 ng/mL, 6 h, read-out: IC50 Anti-Angiogenesis Tube Formation
Description: (§2) Anti-angiogenic activity was evaluated using human umbilical vein endothelial cells (HUVEC) using previously described experimental methods. HUVEC cells were purchased from the American Type Culture Collection (ATCC, Rockville, MD, USA) and cultured in EGM-2 (Lonza, Walkerswille, MD, USA) supplemented with 10% fetal bovine serum (FBS) and antibiotics–antimycotics (PSF; 100 units/mL penicillin G sodium, […], and 250 ng/mL amphotericin B). Briefly, HUVEC cells were mixed with tested compounds in 0.5% FBS EBM-2 media stimulated with or without VEGF (50 ng/mL) on matrigel-coated 96-well plates for 6 h at 37 °C under a humidified atmosphere containing 5% CO2. After the tube formation, cells were photographed using an inverted microscope (Olympus Optical Co. Ltd., Tokyo, Japan), then images were quantified with Angiogenesis Analyzer using Image J software. Tube formation activity was calculated using the following formula: (Total segment # (tested compound) − Total segment # (VEGF−))/(Total segment # (VEGF+) − Total segment # (VEGF−)) × 100. The IC50 value was calculated through non-linear regression analysis using TableCurve 2D v5.01 (Systat Software Inc., San Jose, CA, USA). Cell viability with HUVEC cells were measured independently. First, HUVEC cells were seeded into a 96-well plate and the culture medium was replaced with a serum-free medium when it reached 60% confluency. After overnight starvation, cells were treated with samples and VEGF (50 ng/mL) in 2% FBS EBM-2 medium. Cells were further incubated for 24 h, and MTT assay was used to measure the cell viability. The formazan products were dissolved in dimethyl sulfoxide (DMSO). The absorbance was measured at 570 nm using VersaMax ELISA microplate reader (Molecular Devices, Sunnyvale, CA, USA).

[8] = tested on: human umbilical vein endothelial cells (HUVEC); assay: HUVEC cell viability, MTT assay; format: cell-based; conditions: VEGF 50 ng/mL, 24 h, read-out: IC50 Anti-Angiogenesis Cell Viability
Description: as §2

[9] = tested on: SNU638; assay: Anti-proliferative activity, SRB staining assay, SNU638; format: cell-based; conditions: Homo sapiens, SNU-638, 72 h, read-out: IC50 Anti-Proliferation SNU 638
Description: as §1

[10] = recombinant ICL, 37 °C, 30 min, read-out: IC50 ICL

Chain of Candida albicans-derived isocitrate lyase (ICL) (Q9P8Q7 whole entry): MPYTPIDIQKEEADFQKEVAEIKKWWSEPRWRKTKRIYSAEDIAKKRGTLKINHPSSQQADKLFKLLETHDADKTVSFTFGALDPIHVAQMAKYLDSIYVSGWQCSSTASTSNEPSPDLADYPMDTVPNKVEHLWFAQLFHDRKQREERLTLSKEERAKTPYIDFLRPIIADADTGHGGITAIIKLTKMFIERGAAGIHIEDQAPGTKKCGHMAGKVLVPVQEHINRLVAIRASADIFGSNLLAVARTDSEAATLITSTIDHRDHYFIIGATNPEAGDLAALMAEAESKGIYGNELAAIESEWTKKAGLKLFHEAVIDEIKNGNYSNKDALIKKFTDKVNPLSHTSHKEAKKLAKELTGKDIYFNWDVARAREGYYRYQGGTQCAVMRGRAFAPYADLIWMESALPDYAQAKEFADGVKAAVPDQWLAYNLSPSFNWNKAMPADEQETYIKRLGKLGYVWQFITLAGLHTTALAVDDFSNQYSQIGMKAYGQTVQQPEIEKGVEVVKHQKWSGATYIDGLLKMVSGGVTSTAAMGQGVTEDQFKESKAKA

`COC(=O)[C@@H]1[C@@H](CNC(=O)c2cc(Br)c[nH]2)[C@H](CNC(=O)c2cc(Br)c[nH]2)[C@H]1C(=O)OC` [Compound 4, ageleste B] gave an IC50 [1] of over 50 µM, an IC50 [2] of 30.5 µM and an IC50 [3] of 26.4 µM. For the same compound, the IC50 [4] was over 50 µM, the IC50 [5, 10] was 85.3 µM and the IC50 [6] was 38.2 µM. It also gave an IC50 [7] of over 40 µM, an IC50 [8] of over 40 µM and an IC50 [9] of 37.1 µM.
Compound `COc1cccc2c1C(=O)c1c(O)c3c(c(O)c1C2=O)C[C@@](O)(C(=O)CO)C[C@@H]3O[C@H]1C[C@H](N)[C@H](O)[C@H](C)O1` [Doxorubicin, reference compound] has an IC50 [3] of 1.08 µM.
`CCN(CC)CCNC(=O)c1c(C)[nH]c(/C=C2\C(=O)Nc3ccc(F)cc32)c1C` [Sunitinib, sunitinib, reference compound] showed an IC50 [7] of 2.41 µM and an IC50 [8] of 9.92 µM.
Compound `O=C(O)CC[N+](=O)[O-]` [Compound 3-NP, 3-Nitropropionic acid, reference compound] has an IC50 [5] of 11.1 µM.
For `O=C(NC[C@H]1[C@H](CNC(=O)c2cc(Br)c[nH]2)[C@@H](C(=O)O)[C@@H]1C(=O)O)c1cc(Br)c[nH]1` [Compound 2, ageleste C], the IC50 [1] was over 50 µM, the IC50 [2] was 49.3 µM and the IC50 [3] was 19.1 µM. For the same compound, the IC50 [4] was over 50 µM, the “inhibition of isocitrate lyase (ICL)” value [5] was “moderate inhibition” and the IC50 [5, 10] was 22.1 µM. The IC50 [6] was 44.1 µM, the IC50 [7] was over 40 µM and the IC50 [8] was over 40 µM. The IC50 [9] was 36.8 µM.
In the case of `NC1=NC(=O)C([C@@H]2[C@@H](CNC(=O)c3cc(Br)c[nH]3)[C@H](CNC(=O)c3cc(Br)c[nH]3)[C@H]2C2NC(N)=NC2=O)N1` (mixture of isomers) [Compound 1, dioxysceptrin], the IC50 [1] is reported as 32.8 µM, the IC50 [2] is reported as 31.3 µM and the IC50 [3] is reported as 12.9 µM. The IC50 [4] was 35.2 µM, the IC50 [5, 10] was over 100 µM and the IC50 [6] was 9.93 µM. The IC50 [7] was 7.99 µM, the “anti-angiogenic activity in the tube formation assay” value ([7]; non-cytotoxic concentrations range 5–20 μM) was “moderate anti-angiogenic activity” and the IC50 [8] was over 40 µM. It also gave an IC50 [9] of 7.92 µM.
Work on `COc1cc([C@@H]2c3cc4c(cc3[C@@H](O[C@@H]3O[C@@H]5CO[C@@H](C)O[C@H]5[C@H](O)[C@H]3O)[C@H]3COC(=O)[C@H]23)OCO4)cc(OC)c1O` [Etoposide, reference compound] yielded an IC50 [1] of 3.12 µM, an IC50 [2] of 0.83 µM and an IC50 [4] of 0.74 µM. For the same compound, the IC50 [6] was 0.73 µM and the IC50 [9] was 0.63 µM.
`COC(=O)[C@@H]1[C@@H](CNC(=O)c2cc(Br)c[nH]2)[C@H](CNC(=O)c2cc(Br)c[nH]2)[C@H]1C(=O)O` [Compound 3, ageleste A] showed an IC50 [1] of over 50 µM, an IC50 [2] of over 50 µM and an IC50 [3] of 37.6 µM. It also gave an IC50 [4] of over 50 µM, an IC50 [5, 10] of over 100 µM and an IC50 [6] of over 50 µM. For the same compound, the IC50 [7] was over 40 µM, the IC50 [8] was over 40 µM and the IC50 [9] was over 50 µM.
